What was measured:
Format in all cases: cell-based, Human
NK-92 cells = test: Lytic granule protein expression in NK-92 (flow cytometry, Western blot)
Description: (§1) Total cell lysate was prepared with modified RIPA buffer (1M Tris-HCl (pH 7.5), 5M NaCl, 0.25% sodium deoxycholate, 10% NP-40 and 10 mM sodium fluoride) supplemented with ethylenediaminetetraacetic acid (EDTA)-free protease inhibitor (Roche™) and 2 mM sodium orthovanadate (Sigma-Aldrich™). Protein levels were quantified by bicinchoninic acid (BCA) assay. Protein lysate was separated by 10% SDS-PAGE and Western analysis was performed using primary antibodies listed in the tables below followed with horseradish peroxidase (HRP, 1:10,000, Jackson ImmunoResearch™) conjugated secondary antibodies.
NK-92 cells pre-treated with L598 (30 μM) or vehicle control were stimulated with K-562 tumor target cells [effector: target (E:T) at 1:1] or PMA/lonomycin (1 μg/mL each) or no-stimulation control with K-562 complete media, respectively. Anti-CD107a or LAMP-1 antibody (1:100, PE/Cy7 conjugated, clone H4A3, from BioLegend®) was added to cells at the start of degranulation assay. Golgi stop (containing Monensin, 1 μM) and Golgi plug (containing Brefeldin A, 4 μg/mL) were added to cells one hour after degranulation assay started and were kept until the end of the 6-hour-degranulation assay. Intracellular staining of GrB (1:40, PE conjugated, clone QA18A28, from BioLegend®) and PRF (1:40, FITC conjugated, clone B-D48, from BioLegend®) were performed with the Fixation/Permeabilization Solution Kit (BD® Biosciences) according to the manufacture's protocol. Cells were stained with fixable viability dye (1:2000) for 20 mins on ice and in dark, and blocked with FcBlock (1:20, diluted in 1× Perm/Wash buffer, Human truStain FcX from BioLegend®) for 5 mins at room temperature and in dark before intracellular staining. Cell gating and percentage of population quantification was based on no-stimulation control. For kinetics of degranulation assay, measurements were taken over three hours at 15 mins, 30 mins, 60 mins, 120 mins and 180 mins, with L598 (30 μM, three days) treated group and vehicle control group under the condition of tumor target cell K-562 stimulation (E: T at 1:1) or no stimulation. Intracellular cytolytic granule contents GrA, GrB and PRF were measured as mentioned previously.

[1] = system: JAK/STAT signaling in NK-92 cells; test: JAK/STAT signaling Western blot and IL-2 stimulation assay in NK-92; settings: regular cell culture, inhibitor titration, three days
Description: as §1
For cytokine stimulation assay, NK-92 cells were pre-treated with L598 (30 μM) or vehicle control for three days. Before IL-2 stimulation, NK-92 cells were washed once with serum depleted cell media (no IL-2) and were starved for six hours in presence of L598 or vehicle control. After starvation, NK-92 cells were stimulated with IL-2 across a gradient concentration ranging from 0 to 90 IU/mL for 15 mins at 37° C. After incubation, cells were directly lysed with 2× concentrated TNE buffer and then boiled in 1× Laemmli Buffer to prepare cell lysates. Two independent experiments were performed.

[2] = system: NK-92 cells against Reh cells; test: NK-92 cytolytic assay against NK resistant Reh target cells; settings: 30 μM three days, IL-2 100 IU/mL, 3 h assay
Description: Human NK cell line NK-92 was purchased from American Type Culture Collection (ATCC) and cultured in α-MEM Essential Medium (no ribonucleoside and deoxyribonucleoside) supplemented with 0.2 mM Myo-inositol, 0.02 mM Folic Acid, 0.1 mM β-mercaptoethanol, 1% of Non-essential Amino Acids, 1×L-Glutamax, 1% of Penicillin/Streptomycin, 12.5% of heat-inactivated Horse, and 12.5% of heat-inactivated Characterized Fetal Bovine Serum or FBS. The media was supplemented freshly with 200 IU/mL of IL-2 upon cell thawing for one passage and 100 IU/mL of IL-2 for cell expansion. Human tumor cell lines K-562 and Reh were purchased from ATCC and were cultured in RPM11640 Medium supplemented with 1% of Penicillin/Streptomycin and 10% of heat inactivated FBS. HEK293T/17 cells and HCT116 cells were cultured in Dulbecco's Modified Eagle's Medium (DMEM) High Glucose Medium supplemented with 1% of Penicillin/Streptomycin and 10% of FBS. All cell lines were maintained in 5% CO2, 37° C. incubator, except that NK-92 were maintained in 6.5% CO2 incubator at 37° C. […]
NK-92 anti-tumor cytolysis function was assessed by flow cytometry-based analysis. […] Flow cytometry sample acquisition was performed with BDO LSRFortessa™ with a UV laser at Flow Cytometry Core Facility, McGill University, and data was analyzed with FlowJo™ 10.7.1 and summarized with Prism™ 9 (GraphPad™). […]

[3] = system: NK-92 cells against K-562 cells; test: NK-92 cytolytic assay against K-562 tumor target cells (flow cytometry); settings: three days
Description: Human NK cell line NK-92 was purchased from American Type Culture Collection (ATCC) and cultured in α-MEM Essential Medium (no ribonucleoside and deoxyribonucleoside) supplemented with 0.2 mM Myo-inositol, 0.02 mM Folic Acid, 0.1 mM β-mercaptoethanol, 1% of Non-essential Amino Acids, 1×L-Glutamax, 1% of Penicillin/Streptomycin, 12.5% of heat-inactivated Horse, and 12.5% of heat-inactivated Characterized Fetal Bovine Serum or FBS. The media was supplemented freshly with 200 IU/mL of IL-2 upon cell thawing for one passage and 100 IU/mL of IL-2 for cell expansion. Human tumor cell lines K-562 and Reh were purchased from ATCC and were cultured in RPM11640 Medium supplemented with 1% of Penicillin/Streptomycin and 10% of heat inactivated FBS. HEK293T/17 cells and HCT116 cells were cultured in Dulbecco's Modified Eagle's Medium (DMEM) High Glucose Medium supplemented with 1% of Penicillin/Streptomycin and 10% of FBS. All cell lines were maintained in 5% CO2, 37° C. incubator, except that NK-92 were maintained in 6.5% CO2 incubator at 37° C. All cell lines were maintained below 30 passages and tested regularly for mycoplasma infection using PCR.
NK-92 anti-tumor cytolysis function was assessed by flow cytometry-based analysis. Tumor target cells K-562 and Reh were labelled with cell tracker CFSE ([…]) or CMRA (5 μM) according to manufacturer's protocol at a maximum of one day before cytolysis experiment. On the experiment day, labelled tumor target cells were washed once with PBS and resuspend to desired cell concentration in complete cell media. NK-92 cells were washed and resuspended in complete media without cytokines to desired cell concentration. NK-92 cells and tumor target cells were plated at various effector: target (E:T) ratios with basal cell numbers at 50,000 cells per well in round-bottom 96-well plate and were co-cultured for 3 hours in 5% CO2, 37° C. incubator. After co-culture, cells were washed once with ice-cold PBS and stained with fixable viability dyes: Aqua (Invitrogen™) or UV Blue (Invitrogen™) or eFluor 780 (eBioscience Invitrogen™) at 1:2000 in dark for 20 mins at 4° C. Stained cells were washed twice with ice cold PBS and were fixed with 1% Paraformaldehyde (PFA) for 1 hour or 2% PFA for 30 mins in dark at 4° C. Flow cytometry sample acquisition was performed with BDO LSRFortessa™ with a UV laser at Flow Cytometry Core Facility, McGill University, and data was analyzed with FlowJo™ 10.7.1 and summarized with Prism™ 9 (GraphPad™). Calculation for % of specific cytolysis was followed by the equation: […]

In the case of KQ791, the “protein expression of perforin and granzyme B” value (NK-92 cells; gradual increasing concentration, three days) is reported as “upregulated in a dosage dependent manner”, the “granzyme A protein expression” value (NK-92 cells; with or without inhibitor treatment) is reported as “relatively stable” and the “phosphorylation of STAT2 and STAT6” value [1] is reported as “relatively stable”. The “phosphorylation of STAT1, STAT3, STAT4 and STAT5” value ([1]; dosage dependent) was “increased phosphorylation”, the “NK-92 cytolysis towards NK resistant target cells Reh” value [2] was “had no effect” and the “tumor cytolysis by NK-92 against K-562 with inhibitor titration” value ([3]; dosage increased up to 90 μM, various E:T ratios) was “gradual increasing of tumor cytolysis”.

“TGF-β1: immune regulatory cytokine added to NK-92 culture” was tested, and the “effect of added TGF-β1 on NK-92 cytolysis against K-562” value ([3]; TGF-β 10 ng/mL, IL-2 media) was “significantly reduced”.

B1: IL-4: Th2 cytokine IL-4 added to NK-92 culture (protein, UniProt P05112 25-153, looked up)
Interleukin-4: HKCDITLQEIIKTLNSLTEQKTLCTELTVTDIFAASKNTTEKETFCRAATVLRQFYSHHEKDTRCLGATAQQFHRHKQLIRFLKRLDRNLWGLAGLNSCPVKEANQSTLENFLERLKTIMREKYSKCSS
With B1 the “effect of added IL-4 on NK-92 cytolysis against K-562” value ([3]; IL-4 10 ng/mL, IL-2 media, with or without L598) was “did not reduce nor improve”.

From patent publication US20250025500A1, “PHOSPHATASE INHIBITORS AS NK CELLS MODULATORS FOR THE TREATMENT OF CANCER” (Kanyr Pharma Inc., priority 2021, published 2025)
